Legend:
[1] = biological target: human SIRT2 (50-356 aa) (human) (UniProt Q8IXJ6); experiment: ITC; 40 uL of 2 mM peptide in 20 injections titrated into 200 uL of 30 uM Sirtuin in the cell; 25 C; Tris pH 7.5, 150 mM NaCl; MicroCal PEAQ-ITC analysis software
[2] = biological target: human SIRT1 core region (234-505 aa) (human) (UniProt Q96EB6); experiment: as above
SIRT3 [3] = biological target: T1, SIRT3 (Homo sapiens, UniProt Q9NTG7); experiment: NAD+ consumption/cycling assay; format: biochemical; settings: for delactylation activity in words: NAD+ consumption/cycling, 3 h, Figures 1A, S2
T1 construct: SIRT3 (118–399 aa); 6xHis with TEV site (pET-N-6xHis-TEV vector) (N, cleaved yes); made in house; host or cells: E. coli BL21-CodonPlus (DE3)-RIL
T1 sequence (Q9NTG7 118-399): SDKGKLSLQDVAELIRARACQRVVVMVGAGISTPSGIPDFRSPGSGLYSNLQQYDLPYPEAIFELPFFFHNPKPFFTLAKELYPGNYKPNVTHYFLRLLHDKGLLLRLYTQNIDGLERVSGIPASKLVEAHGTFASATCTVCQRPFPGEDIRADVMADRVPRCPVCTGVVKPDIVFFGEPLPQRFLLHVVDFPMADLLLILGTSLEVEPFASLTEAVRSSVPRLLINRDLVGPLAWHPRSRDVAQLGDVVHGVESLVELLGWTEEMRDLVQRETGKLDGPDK
Experimental: To screen the delactylation activity of Sirtuins, we employed a modified[35] NAD^+ cycling assay to measure the amount of unused NAD^+ levels after Sirtuins’ consumption reactions. This assay involves the conversion of NAD^+ to NADH by alcohol dehydrogenase, followed by the conversion of NADH to NAD^+ by NADH oxidoreductase, diaphorase with resazurin as an electron acceptor. The reduced resazurin is then measured as resorufin, which has a high fluorescence characteristic.[36]
To perform the NAD^+ consumption assay, 50 μM recombinant Sirtuins were co-incubated with 500 μM Kla peptides and 100 μM NAD^+ in 150 NaCl, 20 mM Tris (pH = 7.5) buffer for 3 h or overnight at 37°C. Then, hydrochloric acid, final concentration at 150 mM, was added to terminate the reaction. As for the cycling assay, 200 μL reaction buffer containing 100 mM Na2HPO4 (pH = 8.0), 10 μM resazurin, 10 μM flavin mononucleotide (FMN), 1% absolute ethanol, 66.5 μg/mL alcohol dehydrogenase and 5 μg/mL diaphorase was simultaneously mixed with 10 μL of NAD^+ consumption mixtures in 96-well white plate. Then, the plate was immediately measured by fluorescence spectrophotometer under excitation 549 nm, emission 576 nm condition.

SIRT1 [4] = biological target: T2, SIRT1 (Homo sapiens, UniProt Q96EB6); experiment: HPLC/LC-MS delactylation (erased ratio); format: biochemical; settings: 100 μM peptide, 200 nM SIRT1, 37°C, 3 h
T2 construct: the human SIRT1 core region (234–505 aa); SUMO (pET-28a-sumo vector) (cleaved yes); made in house; host or cells: E. coli BL21-CodonPlus (DE3)-RIL
T2 sequence (Q96EB6 234-505): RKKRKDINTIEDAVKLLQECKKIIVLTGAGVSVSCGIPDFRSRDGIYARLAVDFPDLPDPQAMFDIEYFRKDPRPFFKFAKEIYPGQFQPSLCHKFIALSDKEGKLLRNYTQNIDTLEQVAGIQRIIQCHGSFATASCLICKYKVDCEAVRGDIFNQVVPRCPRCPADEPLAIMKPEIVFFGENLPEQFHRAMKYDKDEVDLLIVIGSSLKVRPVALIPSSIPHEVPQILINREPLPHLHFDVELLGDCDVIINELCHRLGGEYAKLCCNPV
Text: (§1) To prepare for the enzymatic assays and crystallization, the human SIRT1 core region (234–505 aa), SIRT2 (50–356 aa), SIRT5 (32–302), and full-length SIRT7 were cloned into a pET-28a-sumo vector, while SIRT3 (118–399 aa) and full-length SIRT6 were cloned into a pET-N-6xHis-TEV (Tobacco etch virus) vector. These vectors were then transformed and expressed in BL21-CodonPlus (DE3)-RIL competent cells. The recombinant proteins were purified via affinity and ion exchange purification, followed by gel filtration. To remove tags during purification, TEV, and sumo protease were utilized. The purified recombinant human Sirtuins were then concentrated to a final concentration of 10 mg/mL and stored at −80°C freezer for use in the following experiments.
(§2) LC-MS analysis was performed to test and verify the delactylation activity of Sirtuins. The lactyl peptides used in LC-MS assay was added 2 additional tryptophan residues at the N- and C- terminus to enhance the HPLC absorption sensitiveness. After incubating the peptides with Sirtuins/HDAC3 at 37°C for 3 h. The reaction was halted by methanol, and LC-MS was used to analyze the erased ratio of different peptides.

SIRT3 [5] = biological target: T1, SIRT3; experiment: Kinetic study by HPLC, Lineweaver-Burk; format: biochemical; settings: 10-200 μM peptide, 200 nM SIRT3, Tris pH 7.4, 37°C, 40 min, HPLC 280 nm, 3 replicates
Text: as §1
To perform the kinetic study, the erasing rate was determined using the HPLC method. The KM and kcat values were then computed using the Lineweaver-Burk method.[37] […] The erased rate was evaluated by HPLC, and integrations at 280 nm were recorded to give the erased ratio. The kinetic parameters were then obtained using the formula: 1/v=(KM/Vmax)(1/[S])+1/Vmax .

HDAC3/NCOR2 = experiment: HPLC/LC-MS delactylation (erased ratio); format: biochemical; settings: 100 μM peptide, 200 nM HDAC3/NCOR2, 37°C, 3 h; in comparison with Sirtuins
Experimental: as §2

SIRT1 [6] = biological target: T2, SIRT1; experiment: NAD+ consumption/cycling assay; format: biochemical; settings: overnight (≥12 h)
Text: as §1
To screen the delactylation activity of Sirtuins, we employed a modified[35] NAD^+ cycling assay to measure the amount of unused NAD^+ levels after Sirtuins’ consumption reactions. […] The reduced resazurin is then measured as resorufin, which has a high fluorescence characteristic.[36]
To perform the NAD^+ consumption assay, 50 μM recombinant Sirtuins were co-incubated with 500 μM Kla peptides and 100 μM NAD^+ in […], 20 mM Tris (pH = 7.5) buffer for 3 h or overnight at 37°C. […] Then, the plate was immediately measured by fluorescence spectrophotometer under excitation 549 nm, emission 576 nm condition.

lysine lactylation = settings: cells, 24 h treatment; cited from earlier work
Text: Chemical affinity-based probes are powerful tools that convert weak protein-ligand interactions into robust covalent chemical linkages, thus enabling the capture of transient interactions. […] We tried to use this la ...

SIRT2 = biological target: T3, SIRT2 (Homo sapiens, UniProt Q8IXJ6); experiment: HPLC/LC-MS delactylation (erased ratio); format: biochemical; settings: 100 μM peptide, 200 nM SIRT2, 37°C, 3 h
T3 construct: SIRT2 (50–356 aa); SUMO (pET-28a-sumo vector) (cleaved yes); made in house; host or cells: E. coli BL21-CodonPlus (DE3)-RIL
T3 sequence (Q8IXJ6 50-356): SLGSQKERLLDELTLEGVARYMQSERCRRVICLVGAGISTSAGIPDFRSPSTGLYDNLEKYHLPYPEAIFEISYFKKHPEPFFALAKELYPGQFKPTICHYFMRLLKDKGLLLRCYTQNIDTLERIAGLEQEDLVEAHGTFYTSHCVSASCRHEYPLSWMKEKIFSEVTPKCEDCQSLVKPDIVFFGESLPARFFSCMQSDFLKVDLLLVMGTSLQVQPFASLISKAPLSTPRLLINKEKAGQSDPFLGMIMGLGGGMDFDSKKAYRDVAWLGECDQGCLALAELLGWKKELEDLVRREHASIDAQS
Text: as §1, §2

SIRT3 [7] = biological target: T1, SIRT3; experiment: HPLC/LC-MS delactylation (erased ratio); format: biochemical; settings: 100 μM peptide, 200 nM SIRT3, 37°C, 3 h; compared with other Sirtuins
Text: as §1, §2

H3K9ac peptide
Kd [1]: 42.2 µM
Kd [2]: 92.3 µM

KGGAK (L/D lactic acid) RHRK [H4K16la, lactyl-lysine H4K16 peptide; NAD+ assay and ITC]
delactylation activity in words (SIRT3 [3]): higher delactylation activity
NAD+ consumption overnight in words (SIRT3 [3]; overnight (≥12 h)): consumed much higher level of NAD^+
hydrolytic activity, HPLC (SIRT1 [4]): slight hydrolytic activity
kcat (SIRT3 [5]): 0.08 ± 0.008 s⁻¹
Vmax (SIRT3 [5]; Lineweaver-Burk): 0.925 ± 0.101 µmol/L/min
in vitro delactylation activity, HPLC (HDAC3/NCOR2): highest in vitro delactylation activity

QTARK (L/D lactic acid) STGG [H3K9la, lactyl-lysine H3K9 peptide; Trp-flanked version used in HPLC-MS]
NAD+ consumption overnight in words (SIRT1 [6]): consumed much higher level of NAD^+
hydrolytic activity, HPLC (SIRT1 [4]): slight hydrolytic activity

CC(O)C(=O)[O-].[Na+] (stereo not drawn) [sodium lactate]
induction of lysine lactylation (lysine lactylation): will induce detectable levels of lysine lactylation

WKQLATK (L/D-lactic acid) AARKW [H3K23la, lactyl-lysine H3K23 peptide]
delactylation activity in words (SIRT3 [3]): higher delactylation activity

WKGLGK (L/D-lactic acid) GGAKW [H4K12la, lactyl-lysine H4K12 peptide]
hydrolytic activity, HPLC (SIRT1 [4]): didn’t show any hydrolytic activity
hydrolytic activity, HPLC (SIRT2): didn’t show any hydrolytic activity
erased ratio / hydrolytic activity, HPLC (SIRT3 [7]): didn’t show any hydrolytic activity

— paper PMC10504495 (iScience, 2023)
